Article PMC2955773 (ACS chemical biology, 2010)
Like-named read-outs stand apart in the source and are kept apart here.

Legend:
Nox2 [1] = biological target: T1, Nox2 (Homo sapiens, UniProt P04839); assay: Nox2 cell-free system; type: biochemical; conditions: 10 μM
T1 sequence (P04839 2-570 limits assumed): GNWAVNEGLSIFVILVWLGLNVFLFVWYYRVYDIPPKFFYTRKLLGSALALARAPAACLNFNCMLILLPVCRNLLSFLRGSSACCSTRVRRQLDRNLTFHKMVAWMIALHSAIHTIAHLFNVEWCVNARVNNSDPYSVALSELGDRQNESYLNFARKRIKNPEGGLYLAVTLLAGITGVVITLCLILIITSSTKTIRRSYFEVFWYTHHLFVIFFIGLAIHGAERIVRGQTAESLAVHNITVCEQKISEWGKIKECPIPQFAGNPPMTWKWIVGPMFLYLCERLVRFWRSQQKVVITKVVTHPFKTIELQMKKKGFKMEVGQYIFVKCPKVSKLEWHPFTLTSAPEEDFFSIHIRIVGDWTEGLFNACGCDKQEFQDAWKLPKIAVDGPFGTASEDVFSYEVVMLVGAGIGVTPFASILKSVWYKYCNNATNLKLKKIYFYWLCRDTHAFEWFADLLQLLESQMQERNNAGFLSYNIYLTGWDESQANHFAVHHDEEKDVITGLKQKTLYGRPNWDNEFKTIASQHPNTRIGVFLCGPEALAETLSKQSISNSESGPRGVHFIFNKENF
T1 sequence (P13498 2-195 partner limits assumed): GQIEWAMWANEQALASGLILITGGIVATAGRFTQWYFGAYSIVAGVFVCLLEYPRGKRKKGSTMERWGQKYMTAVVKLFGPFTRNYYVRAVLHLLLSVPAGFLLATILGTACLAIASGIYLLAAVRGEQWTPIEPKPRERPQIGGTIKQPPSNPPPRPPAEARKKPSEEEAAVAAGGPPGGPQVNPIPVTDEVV

Nox2 [2] = biological target: T1, Nox2; assay: Superoxide production in fMLP-treated human neutrophils; type: cell-based; conditions: 10 μM
[3] = system: mitochondrial ROS generation in DLD1; assay: Mitochondrial ROS generation by MitoSox dye; type: cell-based, human; conditions: compared to DMSO
DLD1 cells [4] = assay: ECM degradation assay; type: cell-based, human; conditions: SrcYF-transfected DLD1 cells, 10 μM, 1.5hrs
Nox1 [5] = biological target: T2, Nox1 (Homo sapiens, UniProt Q9Y5S8); assay: HEK293-Nox1 reconstituted cell system, ROS generation by CL assay; conditions: HEK293-Nox1 reconstituted cell system treated with ML171
T2 sequence (Q9Y5S8 1-564): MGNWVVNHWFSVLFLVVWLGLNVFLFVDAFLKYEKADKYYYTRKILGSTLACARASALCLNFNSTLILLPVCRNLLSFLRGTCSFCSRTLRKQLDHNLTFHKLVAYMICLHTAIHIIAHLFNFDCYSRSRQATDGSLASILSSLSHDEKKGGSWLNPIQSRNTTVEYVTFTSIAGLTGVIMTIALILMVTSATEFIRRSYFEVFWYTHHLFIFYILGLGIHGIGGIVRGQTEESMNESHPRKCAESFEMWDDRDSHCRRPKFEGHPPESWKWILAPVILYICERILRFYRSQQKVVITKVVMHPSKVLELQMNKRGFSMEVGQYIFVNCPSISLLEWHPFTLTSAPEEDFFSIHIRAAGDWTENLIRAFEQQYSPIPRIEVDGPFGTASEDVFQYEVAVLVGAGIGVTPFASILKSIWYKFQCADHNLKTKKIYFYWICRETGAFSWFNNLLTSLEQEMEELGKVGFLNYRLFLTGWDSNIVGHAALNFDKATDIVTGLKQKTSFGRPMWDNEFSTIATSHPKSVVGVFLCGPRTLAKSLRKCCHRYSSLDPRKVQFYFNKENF
T2 sequence (P13498 2-195 partner limits assumed): T1 sequence (P13498 2-195 partner limits assumed)

[6] = biological target: T3, serotonin 5-HT2C receptor (Homo sapiens, UniProt P28335); assay: Competitive binding assay; set-up: species or system human or rodent
T3 sequence (P28335 33-458): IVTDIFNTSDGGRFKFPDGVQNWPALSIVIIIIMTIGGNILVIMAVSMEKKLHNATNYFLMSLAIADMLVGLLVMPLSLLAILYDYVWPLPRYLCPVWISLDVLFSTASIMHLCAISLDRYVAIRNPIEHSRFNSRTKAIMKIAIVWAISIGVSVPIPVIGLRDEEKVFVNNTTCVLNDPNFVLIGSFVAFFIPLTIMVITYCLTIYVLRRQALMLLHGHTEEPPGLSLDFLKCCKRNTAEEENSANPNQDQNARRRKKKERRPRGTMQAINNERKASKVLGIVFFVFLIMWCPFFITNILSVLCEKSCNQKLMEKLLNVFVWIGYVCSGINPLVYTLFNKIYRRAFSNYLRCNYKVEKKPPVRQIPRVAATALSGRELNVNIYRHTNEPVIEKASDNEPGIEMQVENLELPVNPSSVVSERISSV

Rac1 = Rac1 (Homo sapiens, UniProt P63000); assay: Rac loading assay; type: biochemical; conditions: recombinant Rac1, compared with Mg2+ positive control
xanthine oxidase (XO) = xanthine oxidase (XO) (Bos taurus, UniProt P80457); assay: Xanthine oxidase specificity assay; type: biochemical
Sequence of xanthine oxidase (XO) (P80457 2-1332): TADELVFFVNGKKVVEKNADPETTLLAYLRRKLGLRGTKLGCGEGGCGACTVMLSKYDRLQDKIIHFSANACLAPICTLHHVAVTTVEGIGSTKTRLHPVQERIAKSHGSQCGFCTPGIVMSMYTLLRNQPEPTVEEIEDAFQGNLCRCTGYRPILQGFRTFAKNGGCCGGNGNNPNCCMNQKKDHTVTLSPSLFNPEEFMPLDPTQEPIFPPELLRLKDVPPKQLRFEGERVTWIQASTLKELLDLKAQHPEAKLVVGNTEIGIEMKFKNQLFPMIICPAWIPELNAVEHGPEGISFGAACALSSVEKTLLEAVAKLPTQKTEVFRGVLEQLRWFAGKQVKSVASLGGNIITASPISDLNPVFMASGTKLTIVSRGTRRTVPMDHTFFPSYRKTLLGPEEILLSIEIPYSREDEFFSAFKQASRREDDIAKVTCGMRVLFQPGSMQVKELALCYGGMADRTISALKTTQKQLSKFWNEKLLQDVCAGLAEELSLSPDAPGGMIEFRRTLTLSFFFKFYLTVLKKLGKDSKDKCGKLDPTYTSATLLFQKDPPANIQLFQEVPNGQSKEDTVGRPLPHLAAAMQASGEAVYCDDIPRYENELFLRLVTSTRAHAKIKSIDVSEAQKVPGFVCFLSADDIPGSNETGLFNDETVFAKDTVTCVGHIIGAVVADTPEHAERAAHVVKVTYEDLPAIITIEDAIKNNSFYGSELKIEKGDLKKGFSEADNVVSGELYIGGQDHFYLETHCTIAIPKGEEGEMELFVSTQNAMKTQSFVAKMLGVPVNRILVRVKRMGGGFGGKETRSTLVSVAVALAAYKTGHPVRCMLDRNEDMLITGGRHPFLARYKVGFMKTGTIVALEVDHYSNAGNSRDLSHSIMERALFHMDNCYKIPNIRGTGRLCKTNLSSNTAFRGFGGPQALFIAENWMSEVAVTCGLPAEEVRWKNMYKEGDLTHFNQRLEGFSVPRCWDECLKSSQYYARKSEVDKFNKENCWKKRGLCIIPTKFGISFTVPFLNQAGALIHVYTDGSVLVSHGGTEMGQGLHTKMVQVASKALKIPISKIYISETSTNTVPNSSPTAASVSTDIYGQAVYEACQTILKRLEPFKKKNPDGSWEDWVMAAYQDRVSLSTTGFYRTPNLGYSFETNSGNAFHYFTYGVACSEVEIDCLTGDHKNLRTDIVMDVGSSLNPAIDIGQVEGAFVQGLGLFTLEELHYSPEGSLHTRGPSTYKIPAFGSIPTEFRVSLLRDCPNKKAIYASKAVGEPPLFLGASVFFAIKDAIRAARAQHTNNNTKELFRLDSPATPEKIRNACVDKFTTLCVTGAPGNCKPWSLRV

DLD1 cells [7] = assay: SrcYF-induced invadopodia formation; type: cell-based, human; conditions: SrcYF-transfected DLD1 cells, treated 1hr; ML171 10 μM
[8] = biological target: T4, adrenergic alpha2C receptor (Homo sapiens, UniProt P18825); assay: Competitive binding assay; set-up: species or system human or rodent
T4 sequence (P18825 1-462): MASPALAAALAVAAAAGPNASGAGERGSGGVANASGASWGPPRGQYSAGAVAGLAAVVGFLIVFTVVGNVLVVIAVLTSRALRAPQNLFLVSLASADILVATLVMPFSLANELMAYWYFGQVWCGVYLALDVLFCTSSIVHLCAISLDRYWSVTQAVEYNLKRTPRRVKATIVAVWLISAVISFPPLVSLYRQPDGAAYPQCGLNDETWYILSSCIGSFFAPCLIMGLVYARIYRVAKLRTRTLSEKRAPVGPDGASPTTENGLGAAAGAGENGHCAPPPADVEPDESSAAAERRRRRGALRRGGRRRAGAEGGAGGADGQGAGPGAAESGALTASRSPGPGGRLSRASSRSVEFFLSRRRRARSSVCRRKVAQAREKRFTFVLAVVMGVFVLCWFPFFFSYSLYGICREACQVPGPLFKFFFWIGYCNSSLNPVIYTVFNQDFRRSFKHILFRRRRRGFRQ

[9] = system: G-protein coupled receptors (GPCRs), channels and transporters expressed in the CNS; assay: Competitive binding to a large battery of CNS receptors; set-up: species or system human or rodent
ROS production = ROS production measured by carboxy-H2-DCFDA staining; type: cell-based; conditions: second method of ROS detection
[10] = biological target: serotonin 5-HT2B receptor (Homo sapiens, UniProt P41595); assay: Competitive binding assay; set-up: species or system human or rodent
Sequence of serotonin 5-HT2B receptor (P41595 whole entry): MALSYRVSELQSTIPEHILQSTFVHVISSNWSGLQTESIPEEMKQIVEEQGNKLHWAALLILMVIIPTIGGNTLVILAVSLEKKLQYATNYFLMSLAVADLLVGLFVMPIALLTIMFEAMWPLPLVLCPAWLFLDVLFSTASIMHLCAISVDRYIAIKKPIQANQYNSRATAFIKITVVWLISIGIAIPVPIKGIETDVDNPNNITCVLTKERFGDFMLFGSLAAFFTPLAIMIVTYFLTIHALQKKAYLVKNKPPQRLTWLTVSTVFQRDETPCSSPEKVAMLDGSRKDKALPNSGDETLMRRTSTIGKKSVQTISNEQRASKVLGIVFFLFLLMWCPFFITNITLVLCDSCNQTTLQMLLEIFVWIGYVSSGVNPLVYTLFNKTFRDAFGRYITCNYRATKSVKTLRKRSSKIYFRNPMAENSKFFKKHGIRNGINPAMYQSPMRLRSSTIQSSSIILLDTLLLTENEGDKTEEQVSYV

Nox1 [11] = biological target: T2, Nox1; assay: Luminol-based chemiluminescence; type: cell-based; conditions: for ability to block Nox1-dependent ROS generation: HT29 cells, luminol-based CL assay
[12] = secondary concentration-response analysis
[13] = HT29 cell-based assay, ROS generation, SAR study
[14] = read-out: Micromolar IC50 HT29 Assay, HT29 cell-based assay, ROS generation, SAR study

Compound: c1ccc2c(c1)[I+]c1ccccc1-2 [DPI, diphenylene iodonium, reference compound]
- superoxide formation (Nox2 [1]): dramatically inhibit superoxide formation
- superoxide formation (Nox2 [2]): dramatically inhibit superoxide formation
- mitochondrial ROS generation [3]: slightly reduced ROS generation in mitochondria
- ECM degradation (DLD1 cells [4]): blocked this effect

Compound: CC(=O)c1ccc2c(c1)Nc1ccccc1S2 [ML171, 2-acetylphenothiazine]
- rescue of ROS generation by over-expression of Nox1, NoxA1 or NoxO1 (Nox1 [5]): only increasing over-expression of Nox1 could rescue ROS generation
- % of inhibition ([6]; primary binding assay): > 60%
- Ki [6, 12]: micromolar range
- mitochondrial ROS generation [3]: did not decrease mitochondrial ROS generation
- block of Rac1 loading with GTP (Rac1): only marginally block Rac1 loading
- inhibition of XO-dependent ROS generation (xanthine oxidase (XO)): unable to inhibit XO-dependent ROS generation
- invadopodia formation (DLD1 cells [7]): strongly decreased SrcYF-induced invadopodia formation
- % of inhibition ([8]; primary binding assay): > 60%
- Ki [8, 12]: micromolar range
- binding to receptors of the battery [9]: did not significantly bind most of the receptors tested
- ROS production by carboxy-H2-DCFDA staining (ROS production): efficiently blocks ROS production
- % of inhibition ([10]; primary binding assay): > 60%
- Ki [10, 12]: micromolar range
- ECM degradation (DLD1 cells [4]): strongly reduced the ability of SrcYF-transfected DLD1 cells to degrade the ECM

Compound: OCCN1CCN(CCCN2c3ccccc3Sc3ccc(Cl)cc32)CC1 [SR-01000000137-4]
- Micromolar IC50 HT29 Assay (Nox1 [11]; [13]): Inactive (AID 2808)

Compound: CN(C)CCCN1c2ccccc2Sc2ccc(C(F)(F)F)cc21 [SR-01000000224-4, Triflupromazine, reference compound]
- Micromolar IC50 HT29 Assay (Nox1 [11]; [13]): Inactive (AID 2808)

Compound: CN(C)CCCN1c2ccccc2Sc2ccccc21 [SR-01000000228-4, promazine, reference compound]
- Micromolar IC50 HT29 Assay (Nox1 [11]; [13]): Inactive (AID 2808)

Compound: CN1CCN(CCCN2c3ccccc3Sc3ccc(C(F)(F)F)cc32)CC1.Cl.Cl [SR-01000003020-6]
- Micromolar IC50 HT29 Assay (Nox1 [11]; [13]): Inactive (AID 2808)

Compound: Cl.Cl.OCCN1CCN(CCCN2c3ccccc3Sc3ccc(C(F)(F)F)cc32)CC1 [SR-01000003048-5, Fluorophenazine, reference compound]
- Micromolar IC50 HT29 Assay (Nox1 [11]; [13]): Inactive (AID 2808)

Compound: COc1ccc2c(c1)Sc1ccccc1N2 [SR-01000025134-3]
- IC50 (Nox1 [11]; [14]): 940 nM

Compound: CCOC(=O)Nc1ccc2c(c1)Nc1ccccc1S2 [SR-01000477673-3]
- IC50 (Nox1 [11]; [14]): 920 nM

Compound: Clc1ccc2c(c1)Nc1ccccc1S2 [SR-01000596948-2]
- IC50 (Nox1 [11]; [14]): 250 nM

Compound: c1ccc2c(c1)Nc1ccccc1S2 [SR-01000721844-3]
- IC50 (Nox1 [11]; [14]): 370 nM

Compound: O=[N+]([O-])c1ccc2c(c1)Sc1ccc(C(F)(F)F)cc1N2 [SR-03000000695-1]
- IC50 (Nox1 [11]; [14]): 1400 nM

Compound: COc1ccc2c(c1)Sc1ccc(Cl)cc1N2 [SR-03000000698-1]
- IC50 (Nox1 [11]; [14]): 177 nM

Compound: Cc1ccc(S(=O)(=O)c2ccc3c(c2)Sc2ccc(Cl)cc2N3)cc1 [SR-03000000707-1]
- IC50 (Nox1 [11]; [14]): 5300 nM

Compound: CC(O)c1ccc2c(c1)Nc1ccccc1S2 (stereo not drawn) [SR-03000000760-1]
- IC50 (Nox1 [11]; [14]): 360 nM

Compound: CN(C)CCCN1c2ccccc2Sc2ccc(Cl)cc21 [chlorpromazine, reference compound]
- IC50 (Nox1 [11]): > 50000 nM
- Micromolar IC50 HT29 Assay (Nox1 [11]; [13]): Inactive (AID 2808)
- invadopodia formation (DLD1 cells [7]): did not observe a decreased ability of DLD1 cells to form cortactin-positive, F-actin-rich invadopodia

Compound: OCCN1CCN(CCCN2c3ccccc3Sc3ccc(Cl)cc32)CC1 [perphenazine, reference compound]
- ability to block Nox1-dependent ROS generation (Nox1 [11]): unable to block Nox1-dependent ROS generation

Compound: CN1CCN(CCCN2c3ccccc3Sc3ccc(C(F)(F)F)cc32)CC1 [trifluperazine, reference compound]
- ability to block Nox1-dependent ROS generation (Nox1 [11]): unable to block Nox1-dependent ROS generation
